Measurements reported in patent publication US20070196866A1, “Modulators of ion channel trpa1” (IRM LLC, priority 2004, published 2007).
Where “and” joins values, the source holds several entries; their conditions need not be identical. Identical values can stand only once. Like-named read-outs stand apart in the source and are kept apart here.

Assays:
mTRPA1 [1] = target: T1, mTRPA1 (Mus musculus, UniProt Q8BLA8); experiment: Ratiometric calcium imaging of CHO cells expressing mTRPA1; format: cell-based; conditions: for increase in intracellular free calcium: ratiometric calcium imaging
T1 construct: expressed in transfected cells; host or cells: CHO cells

[2] = Nociceptive behavior after intraplantar injection in mice; format: in vivo; conditions: for licking and shaking of the injected hindpaw: wildtype mice, intraplantar, five minutes post-injection, cinnamaldehyde 5 mM and 16.4 mM
mTRPA1 [3] = target: T1, mTRPA1; experiment: Screen of cinnamaldehyde-like compounds in heterologous expression systems; format: cell-based; conditions: even in millimolar concentrations
mouse TRPA1 [4] = target: T2, mouse TRPA1 (Mus musculus, UniProt Q8BLA8); experiment: FLIPR intracellular calcium assay, mouse TRPA1-expressing CHO cells; format: cell-based; conditions: FLIPR; for increase in intracellular calcium upon application: mTRPA1 CHO cells; for EC50: mTRPA1
T2 construct: expressed in transfected cells; host or cells: CHO cells

naïve CHO cells = experiment: Calcium response of naive CHO cells; format: cell-based; conditions: alone
From the text: Another downstream effect of PLC activity is the generation of Diacylglycerol (DAG). Therefore, we tested if l-Oleoyl-2-acetyl-sn-glycerol (OAG, a cell permeable analog of DAG) could activate TRPA1. […] OAG alone gives no response in naïve CHO cells. DAG can be converted to poly-unsaturated fatty acid (PUFAs) such as arachidonic acid (AA). […] AA can be converted to numerous metabolites, including prostaglandins. […] However, such a compound named 5,8,11,14-Eicosatetraynoic acid (ETYA) activated TRPA1- expressing CHO cells. Therefore, AA metabolism is not required for the activation of TRPA1.

B2R-expressing cells = experiment: Calcium imaging of BK responses in B2R-expressing cells; format: cell-based; conditions: 10 μM
From the text: (§1) We next tested if specific inhibition of PLC by U-73122 would affect TRPA1 activation by bradykinin. […] We then tested if PLC inhibition of TRPA1 was stimulus specific. […] We further tested the role of PLC inhibition on TRPM8.

TRPM8 = experiment: Calcium imaging of TRPM8-expressing CHO cells; format: cell-based
Protocol: We focused on the two mTRPA1-specific compounds. Using FLIPR, we determined the concentration for half maximal activation to be 61±9 μM for cinnamaldehyde and 22±3 μM for allyl isothiocyanate. […] Ruthenium red, a known blocker of mTRPA1, blocked the cinnamaldehyde response.
as §1

[5] = system: B2R/TRPA1- expressing CHO cells; experiment: Calcium imaging of BK responses in B2R/TRPA1-expressing CHO cells; format: cell-based; conditions: 10 μM
From the text: as §1

TRPV4 = target: T3, TRPV4 (Homo sapiens, UniProt Q9HBA0); experiment: Calcium imaging of TRPV4-expressing CHO cells; format: cell-based
T3 construct: expressed in transfected cells; host or cells: CHO cells

adult rat DRG neurons = experiment: Calcium imaging of cultured adult rat DRG neurons; format: cell-based; conditions: 1.6 times the EC50
From the text: To further test this hypothesis, and to find out if the pungent compounds described above activate TRPA1 specifically, we performed calcium imaging of adult rat DRG neurons in response to cold, menthol, cinnamaldehyde, allyl isothiocyanate, and bradykinin. […] To a large extent, cinnamaldehyde and menthol activated mutually exclusive populations of cold-responsive neurons, as our model would predict. Allyl isothiocyanate appeared less specific as it activated 63% of the cold-responsive population (including a large overlap with menthol) and 12% of the cold-insensitive population. We have used 1.6 times the EC50 values of cinnamaldehyde and allyl isothiocyanate to enable us to directly compare DRG response profiles to these compounds. […] There were no significant differences in profiles of cinnamaldehyde and allyl isothiocyanate between cultures in the presence of 1 and 100 ng/ml of NGF.
In addition to the pungent sensory compounds, we have shown that BK can activate TRPA1.
To test if garlic extracts and allicin specifically activate TRPA1 in native neurons, we performed calcium imaging of adult rat DRG neurons. […] Addition of allicin or garlic extract to cultured rat DRG neurons activated a specific population of neurons.

TRPV1 = experiment: Calcium imaging of TRPV1-expressing CHO cells; format: cell-based
human TRPA1 (hTRPA1) = target: T4, human TRPA1 (hTRPA1) (Homo sapiens, UniProt O75762); experiment: Current recording in Xenopus oocytes expressing human TRPA1; format: cell-based
T4 construct: expressed in transfected cells; host or cells: Xenopus oocytes
From the text: (§2) We also characterized the cinnamaldehyde-induced current in mTRPA1 expressing CHO cells. […] Expression of either mouse or human TRPA1 (hTRPA1) in Xenopus oocytes rendered these cells responsive to cinnamaldehyde as well as to cold temperatures. […] Indeed, the cinnamaldehyde-induced current from mTRPA1-expressing oocytes rarely returned to baseline, even after washing out the compound.
Increased currents by repeated application of cinnamaldehyde (sensitization) in oocyte recordings is in contrast to strong desensitization to cinnamaldehyde observed in mTRPA1-expressing CHO cell.

mouse TRPA1 [6] = target: T2, mouse TRPA1; experiment: Current recording in Xenopus oocytes expressing mouse TRPA1; format: cell-based
From the text: as §2

dTRPA1 (dANTKM1) = target: T5, dTRPA1 (dANTKM1) (Drosophila melanogaster, UniProt Q7Z020); experiment: Current recording in oocytes expressing dTRPA1; format: cell-based
T5 construct: expressed in transfected cells; host or cells: oocytes (Xenopus, from the preceding sentences)
T5 sequence (Q7Z020 1-1197): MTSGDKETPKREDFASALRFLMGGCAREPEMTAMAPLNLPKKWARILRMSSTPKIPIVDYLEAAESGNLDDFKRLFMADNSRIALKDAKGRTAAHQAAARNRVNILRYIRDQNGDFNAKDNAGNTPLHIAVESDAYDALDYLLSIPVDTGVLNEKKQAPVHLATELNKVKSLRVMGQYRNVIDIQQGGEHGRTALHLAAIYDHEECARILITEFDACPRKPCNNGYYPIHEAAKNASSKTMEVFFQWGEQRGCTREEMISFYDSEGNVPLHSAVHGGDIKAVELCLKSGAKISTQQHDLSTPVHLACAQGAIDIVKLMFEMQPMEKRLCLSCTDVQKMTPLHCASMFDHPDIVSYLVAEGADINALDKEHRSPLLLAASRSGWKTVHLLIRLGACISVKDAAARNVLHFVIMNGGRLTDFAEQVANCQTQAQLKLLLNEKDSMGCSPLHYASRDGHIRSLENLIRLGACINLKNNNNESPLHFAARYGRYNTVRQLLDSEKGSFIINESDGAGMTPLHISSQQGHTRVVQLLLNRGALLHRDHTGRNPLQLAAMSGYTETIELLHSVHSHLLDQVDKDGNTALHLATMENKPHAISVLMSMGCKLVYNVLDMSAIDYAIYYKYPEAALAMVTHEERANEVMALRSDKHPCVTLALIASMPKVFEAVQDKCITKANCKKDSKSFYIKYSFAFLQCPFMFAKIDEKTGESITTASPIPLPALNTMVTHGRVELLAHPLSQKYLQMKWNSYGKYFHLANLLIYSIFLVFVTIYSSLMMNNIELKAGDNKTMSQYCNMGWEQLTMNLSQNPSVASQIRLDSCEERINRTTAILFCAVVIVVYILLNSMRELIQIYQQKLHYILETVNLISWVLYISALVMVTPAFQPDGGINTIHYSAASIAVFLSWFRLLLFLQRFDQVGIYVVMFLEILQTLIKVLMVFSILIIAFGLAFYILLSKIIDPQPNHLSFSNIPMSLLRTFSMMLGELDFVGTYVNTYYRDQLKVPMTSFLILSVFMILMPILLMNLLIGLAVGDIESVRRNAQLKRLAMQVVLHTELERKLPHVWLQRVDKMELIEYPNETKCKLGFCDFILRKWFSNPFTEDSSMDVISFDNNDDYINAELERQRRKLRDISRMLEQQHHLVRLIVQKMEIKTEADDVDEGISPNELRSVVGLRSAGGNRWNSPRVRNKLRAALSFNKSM

[7] = Paw withdrawal latency to heat (hyperalgesia) after intraplantar injection; format: in vivo, mice
Protocol: To provide further evidence of the role of TRPA1 in pain sensation, we investigated if cinnamaldehyde injections could lead to hyperalgesia, an increased response to pain due to sensitization often caused by inflammation or injury. […] In contrast, no significant difference could be observed between the latencies of the two paws when vehicle was injected.
Hyperalgesia to heat is thought to involve sensitization of TRPV1. […] Note that paw withdrawal latencies to heat are higher in TRPV1^−/− mice, consistent with the partial heat sensitivity phenotype of these mice (Caterina et al., Science 288: 306-313, 2000; and Davis et al., Nature 405: 183-187, 2000). Therefore, the acute nociceptive response of cinnamaldehyde is independent of TRPV1, while the heat hyperalgesia is mediated through TRPV1.

mTRPA1 [8] = target: T1, mTRPA1; experiment: Whole cell patch clamp of mTRPA1-expressing CHO cells; format: cell-based
From the text: as §2

TRPA1 = TRPA1 (Homo sapiens, UniProt O75762); experiment: Thapsigargin response of cells transiently transfected with hTRPA1 and YFP reporter; format: cell-based; set-up: expressed in transfected cells; conditions: same coverslip
From the text: Phospholipase C (PLC) and phospholipase A2 are activated by BK signaling. Since many TRP channels are modulated by PLC activity, we tested whether downstream affectors of PLC can modulate TRPA1 function. One of the major consequences of PLC activation is the release of calcium from intracellular stores. We therefore tested if passive release of calcium from the stores with the […] endoplasmic reticulum Ca^2+-ATPase (SERCA) pump blocker thapsigargin could activate TRPA1 function. We examined the effect of thapsigargin on cells transiently-transfected with hTRPA1 and YFP reporter plasmid. This allowed for a direct comparison between TRPA1-expressing (YFP positive) and control (YFP negative) cells under the same experimental conditions (on the same coverslip).

T2 sequence (Q8BLA8 whole entry): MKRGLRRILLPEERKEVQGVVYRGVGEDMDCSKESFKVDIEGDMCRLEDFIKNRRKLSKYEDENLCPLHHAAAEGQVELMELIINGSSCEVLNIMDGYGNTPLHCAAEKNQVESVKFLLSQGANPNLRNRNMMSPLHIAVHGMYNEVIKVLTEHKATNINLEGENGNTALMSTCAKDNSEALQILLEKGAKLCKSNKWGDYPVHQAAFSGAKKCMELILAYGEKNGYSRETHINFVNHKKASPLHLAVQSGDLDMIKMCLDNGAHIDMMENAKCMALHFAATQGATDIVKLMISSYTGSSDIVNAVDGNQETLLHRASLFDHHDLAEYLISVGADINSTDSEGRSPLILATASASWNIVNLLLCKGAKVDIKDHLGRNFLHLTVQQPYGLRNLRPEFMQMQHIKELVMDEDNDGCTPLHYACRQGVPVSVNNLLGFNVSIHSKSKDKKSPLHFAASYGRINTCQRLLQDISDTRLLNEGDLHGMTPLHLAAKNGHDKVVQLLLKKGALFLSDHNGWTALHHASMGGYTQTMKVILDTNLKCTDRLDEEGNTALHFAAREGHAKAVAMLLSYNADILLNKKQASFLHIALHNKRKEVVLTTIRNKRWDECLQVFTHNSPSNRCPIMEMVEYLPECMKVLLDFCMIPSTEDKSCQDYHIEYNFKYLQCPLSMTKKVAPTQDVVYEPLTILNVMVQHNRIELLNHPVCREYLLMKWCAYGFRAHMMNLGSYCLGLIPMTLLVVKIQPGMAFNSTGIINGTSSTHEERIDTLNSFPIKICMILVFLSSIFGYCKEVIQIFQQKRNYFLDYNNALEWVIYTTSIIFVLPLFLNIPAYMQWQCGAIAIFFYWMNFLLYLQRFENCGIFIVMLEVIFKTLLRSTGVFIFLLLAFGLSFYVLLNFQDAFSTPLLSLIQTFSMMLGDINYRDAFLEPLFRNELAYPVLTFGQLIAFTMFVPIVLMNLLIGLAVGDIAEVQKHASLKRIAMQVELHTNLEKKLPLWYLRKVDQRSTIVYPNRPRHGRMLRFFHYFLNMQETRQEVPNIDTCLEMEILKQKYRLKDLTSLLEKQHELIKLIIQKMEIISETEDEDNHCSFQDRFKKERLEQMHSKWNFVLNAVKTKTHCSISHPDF
T1 sequence (Q8BLA8 whole entry): as above
T4 sequence (O75762 whole entry): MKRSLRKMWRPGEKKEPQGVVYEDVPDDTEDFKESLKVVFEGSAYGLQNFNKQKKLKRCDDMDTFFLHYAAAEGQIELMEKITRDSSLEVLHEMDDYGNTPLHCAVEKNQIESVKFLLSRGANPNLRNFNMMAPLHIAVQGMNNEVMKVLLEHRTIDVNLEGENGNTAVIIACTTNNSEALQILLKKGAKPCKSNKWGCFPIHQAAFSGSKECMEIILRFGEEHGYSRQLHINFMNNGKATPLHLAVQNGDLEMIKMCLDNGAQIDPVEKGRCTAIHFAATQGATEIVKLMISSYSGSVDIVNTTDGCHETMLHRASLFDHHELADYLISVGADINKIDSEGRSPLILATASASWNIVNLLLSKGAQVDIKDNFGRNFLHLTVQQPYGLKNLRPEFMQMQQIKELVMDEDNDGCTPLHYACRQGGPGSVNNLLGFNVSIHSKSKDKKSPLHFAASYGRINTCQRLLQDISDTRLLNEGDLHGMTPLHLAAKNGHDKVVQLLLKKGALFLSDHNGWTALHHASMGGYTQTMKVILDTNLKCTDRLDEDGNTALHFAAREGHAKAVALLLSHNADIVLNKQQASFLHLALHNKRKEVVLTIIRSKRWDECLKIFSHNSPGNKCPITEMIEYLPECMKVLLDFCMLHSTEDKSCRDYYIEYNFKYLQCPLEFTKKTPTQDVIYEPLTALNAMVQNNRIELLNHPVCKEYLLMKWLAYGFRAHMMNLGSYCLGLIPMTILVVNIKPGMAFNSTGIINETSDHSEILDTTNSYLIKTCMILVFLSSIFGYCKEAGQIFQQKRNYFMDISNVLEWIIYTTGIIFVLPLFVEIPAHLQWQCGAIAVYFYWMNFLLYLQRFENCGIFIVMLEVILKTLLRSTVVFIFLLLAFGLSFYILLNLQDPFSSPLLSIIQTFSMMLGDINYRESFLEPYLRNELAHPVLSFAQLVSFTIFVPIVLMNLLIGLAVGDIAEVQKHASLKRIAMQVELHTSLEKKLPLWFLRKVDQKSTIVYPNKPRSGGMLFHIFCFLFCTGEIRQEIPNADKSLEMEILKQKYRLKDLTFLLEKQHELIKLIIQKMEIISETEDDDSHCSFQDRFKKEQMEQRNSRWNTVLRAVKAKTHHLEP
T3 sequence (Q9HBA0 whole entry, species assumed): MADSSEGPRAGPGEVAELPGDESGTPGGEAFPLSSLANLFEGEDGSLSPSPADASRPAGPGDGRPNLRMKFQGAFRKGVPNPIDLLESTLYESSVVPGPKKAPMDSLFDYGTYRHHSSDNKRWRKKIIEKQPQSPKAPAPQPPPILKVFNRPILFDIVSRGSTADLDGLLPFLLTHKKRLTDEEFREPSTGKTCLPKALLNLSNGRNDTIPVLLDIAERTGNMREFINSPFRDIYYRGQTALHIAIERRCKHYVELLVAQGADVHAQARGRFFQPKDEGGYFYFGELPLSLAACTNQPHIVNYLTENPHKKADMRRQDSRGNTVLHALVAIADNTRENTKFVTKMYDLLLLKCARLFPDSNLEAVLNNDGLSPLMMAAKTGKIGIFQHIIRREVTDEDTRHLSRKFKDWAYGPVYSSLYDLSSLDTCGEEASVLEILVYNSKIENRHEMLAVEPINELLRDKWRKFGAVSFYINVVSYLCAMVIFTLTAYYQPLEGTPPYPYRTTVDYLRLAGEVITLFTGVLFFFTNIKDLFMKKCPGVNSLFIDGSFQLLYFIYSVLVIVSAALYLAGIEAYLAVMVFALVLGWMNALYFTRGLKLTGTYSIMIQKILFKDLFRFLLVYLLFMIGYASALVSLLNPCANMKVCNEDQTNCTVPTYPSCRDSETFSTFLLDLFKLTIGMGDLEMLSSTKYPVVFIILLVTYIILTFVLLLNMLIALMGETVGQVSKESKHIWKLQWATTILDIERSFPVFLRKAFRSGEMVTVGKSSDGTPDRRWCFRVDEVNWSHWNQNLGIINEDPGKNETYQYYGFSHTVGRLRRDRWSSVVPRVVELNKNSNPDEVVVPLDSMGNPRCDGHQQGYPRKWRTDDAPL
Sequence of TRPA1 (O75762 whole entry): as the sequence (O75762 whole entry) above

CCCCC/C=C\C/C=C\C/C=C\C/C=C\CCCC(=O)O [AA, arachidonic acid]
activation of mTRPA1/TRPA1-expressing CHO cells (mTRPA1 [1]): activated

O=C(O)C=Cc1ccccc1 [Cinnamic acid, reference compound]
licking and shaking of the injected hindpaw [2]: not observed | activation of mTRPA1 (mTRPA1 [3]): did not activate

CCCCCC#CCC#CCC#CCC#CCCCC(=O)O [ETYA, 5,8,11,14-Eicosatetraynoic acid]
activation of mTRPA1/TRPA1-expressing CHO cells (mTRPA1 [1]): activated

C=CCc1ccc(O)c(OC)c1 [Eugenol]
increase in intracellular calcium upon application (mouse TRPA1 [4]): sharp increase in intracellular calcium

CCCCC[C@H](O)CC(=O)CCc1ccc(O)c(OC)c1 [Gingerol]
increase in intracellular calcium upon application (mouse TRPA1 [4]): sharp increase in intracellular calcium

CCCCCCCC/C=C\CCCCCCCC(=O)OC[C@H](CO)OC(C)=O [OAG, l-Oleoyl-2-acetyl-sn-glycerol]
activation of mTRPA1/TRPA1-expressing CHO cells (mTRPA1 [1]): robust response | response in naïve CHO cells (naïve CHO cells): no response

N.N.N.N.N.N.N.N.N.N.N.N.N.N.[Cl-].[Cl-].[Cl-].[Cl-].[Cl-].[Cl-].[O-2].[O-2].[Ru+3].[Ru+3].[Ru+4] [Ruthenium red]
block of AA activation (mTRPA1 [1]; stimulus AA): blocked | block of the OAG response (mTRPA1 [1]; stimulus OAG): blocked | block of the cinnamaldehyde response (mTRPA1 [1]; stimulus cinnamaldehyde): blocked

COc1ccc2c(c1)CC[C@@H]1[C@@H]2CC[C@]2(C)[C@@H](NCCCCCCN3C(=O)C=CC3=O)CC[C@@H]12 [U-73122]
inhibition of BK responses in B2R-expressing cells (B2R-expressing cells): inhibited | effect on cold- and menthol-induced responses of TRPM8 (TRPM8; preincubation necessary for menthol block): strongly dowregulated | inhibition of BK responses in B2R/TRPA1-expressing CHO cells [5]: inhibited | effect on TRPA1 activation by cinnamaldehyde (mTRPA1 [1]; stimulus cinnamaldehyde): inhibited | effect on TRPA1 activation by cold (mTRPA1 [1]; stimulus cold): strongly downregulated

COc1ccc2c(c1)CC[C@@H]1[C@@H]2CC[C@]2(C)[C@@H](NCCCCCCN3C(=O)CCC3=O)CC[C@@H]12 [U-73343]
inhibition of BK responses in B2R-expressing cells (B2R-expressing cells): not | inhibition of BK responses in B2R/TRPA1-expressing CHO cells [5]: not

C=CCN=C=S [allyl isothiocyanate]
activation of TRPV4-expressing CHO cells (TRPV4): did not activate | share of cold-activated (cold-responsive) DRG neurons activated (adult rat DRG neurons): 63% | share of cold-insensitive neurons activated (adult rat DRG neurons): 12% | activation of TRPM8-expressing CHO cells (TRPM8): did not activate | activation of TRPV1-expressing CHO cells (TRPV1): did not activate | specificity to mTRPA1 when tested against TRPM8 and TRPV1 (mouse TRPA1 [4]): specific to mTRPA1 | EC50 (mouse TRPA1 [4]; read-out: concentration for half maximal activation (EC50)): 22 ± 3 µM | increase in intracellular calcium upon application (mouse TRPA1 [4]): sharp increase in intracellular calcium | increase in intracellular free calcium (mTRPA1 [1]): robust increase in intracellular free calcium

O=CC=Cc1ccccc1 [cinnamaldehyde]
response of human TRPA1-expressing oocytes (human TRPA1 (hTRPA1)): responsive | current of second pulse relative to first pulse (human TRPA1 (hTRPA1); repeated applications, n=6): 250±23% | activation of TRPV4-expressing CHO cells (TRPV4): did not activate | response of mouse TRPA1-expressing oocytes (mouse TRPA1 [6]): responsive | share of cold-activated (cold-responsive) DRG neurons activated (adult rat DRG neurons): 39% | share of cold-insensitive neurons activated (adult rat DRG neurons): 1% | activation of TRPM8-expressing CHO cells (TRPM8): did not activate | response of dTRPA1-expressing oocytes (dTRPA1 (dANTKM1)): did not respond | activation of TRPV1-expressing CHO cells (TRPV1): did not activate | response to injection ([2]; TRPV1−/− mice): responded | licking and shaking of the injected hindpaw [2]: induced licking and shaking of the injected hindpaw | heat hyperalgesia ([7]; TRPV1−/− mice): absent | paw withdraw latency, injected compared to control paws ([7]; thirty minutes after injection, p=0.009): significantly lowered | specificity to mTRPA1 when tested against TRPM8 and TRPV1 (mouse TRPA1 [4]): specific to mTRPA1 | increase in intracellular calcium upon application (mouse TRPA1 [4]): sharp increase in intracellular calcium | EC50 (mouse TRPA1 [4]; concentration for half maximal activation (EC50)): 61 µM and ~61 µM | elicited current (mTRPA1 [8]): robust desensitized current | increase in intracellular free calcium (mTRPA1 [1]): robust increase in intracellular free calcium

C/C=C(/C)C(=O)O[C@H]1C(C)=C2[C@H]([C@@H]1OC(=O)CCCCCCC)[C@@](C)(OC(C)=O)C[C@H](OC(=O)CCC)[C@@]1(O)[C@H]2OC(=O)[C@@]1(C)O [thapsigargin]
response in YFP-positive (TRPA1-expressing) cells compared with control cells (TRPA1): slightly smaller than in YFP-negative cells
